Source: patent publication US12024543B2, “Micropeptides and use of same for modulating gene expression” (UNIVERSITE PAUL SABATIER TOULOUSE III, priority 2013, dated 2024)

Test system: HsmiR155
Assay: HeLa cells transfected to overexpress HsmiPEP155, relative expression of Pre-miR155
Assay type: cell-based, Homo sapiens
Details: HeLa cells overexpressing HsmiPEP155
Text: The DNA fragments of interest (HsmiPEP155 and the mutated miPEP) were synthesized or amplified by PCR using specific primers, and then cloned using the enzymes XhoI and NotI into a pUAS plasmid permitting their overexpression by means of the GAL4 transcription factor, the expression of which is controlled by a constitutive strong promoter.
The different constructs were produced either by PCR amplification on genomic DNA of HeLa cells, or by RT-PCR on total RNAs of L428 human cells. The amplified PCR fragments are digested with the HindIII/EcoRI restriction enzymes and then cloned into the vector pcDNA3.1. The DH5a strain of Escherichia coli is electroporated and then cultured on a solid medium (2YT+agar+ampicillin). The plasmid DNA from different clones is then prepared and sequenced for verification. The constructs are then prepared using the QIAfilter Plasmid Midi kit (QIAGEN) and stored at −20° C.
The HeLa cells (established tumour line, ATCC CCL-2.2) are cultured in a 6-well plate in complete medium [(DMEM (1×)+Glutamax+4.5 g/L glucose without pyruvate+1× penicillin/streptomycin+1 mM Na-pyruvate+10% calf serum] and placed in an incubator at 37° C. and 5% CO2.
The cells are transfected when they are at 50% confluence. […]
10-15 μg of total RNAs is then analysed by Northern blot on 15% acrylamide gel [solution of acrylamide/40% bis-acrylamide, ratio 19:1], 7M urea in TBE 1×. […]

MEMALMVAQTRKGKSVV (listed as Homo sapiens) [HsmiPEP155]
expression of HsmiR155 (relative expression of Pre-miR155): increases
